Reference: US20100292306A1, “Compositions And Methods For The Treatment Of Muscular Dystrophy” (priority 2005, published 2010)
Entries after “also recorded” stand apart in the source; their conditions may differ.

How the values were obtained:
mdx gastrocnemius muscle = assay: Gastrocnemius twitch tension at optimal length
[1] = tested on: mdx triangularis sterni (TS) muscle; assay: Histological cross sections of mdx TS muscle (fiber number, diameter, density, myonuclei, centronucleation); type: in vivo, mdx mice; conditions: 50 mg/kg daily 30 days from 30 days of age, read at 60 days; p<0.001
mdx TS muscle fibers = assay: Intracellular recording of resting membrane potential in TS muscle fibers after chronic treatment; type: in vivo, mdx mice
[2] = tested on: mdx triangularis sterni (TS) muscle; assay: Histological cross sections of mdx TS muscle (fiber number, diameter, density, myonuclei, centronucleation); type: in vivo, mdx mice
Description: To further examine the morphological effects of chronic treatment with inhibitors of the NFκB pathway, the fixed TS preparations used in these investigations on mature mdx mice (Series 2 through 4) were sectioned and stained with hematoxylin and eosin using standard histological procedures (FIG. 7A, 7B, 7C). […] PDTC treatment produced a significant (p<0.001) reduction in diameter in the caudal region and a significant (p<0.001) increase in diameter in the middle region in comparison to corresponding values from the vehicle-injected mdx mice (FIG. 9).
To determine the density of muscle fibers in the mdx TS muscle, individual sections representing all of the fibers within each TS muscle were evaluated by determining the average number of fiber cross sections per unit length of the TS muscle where the length is defined along the axis orthogonal to the principal fiber axis. This procedure was performed for all of the available TS muscles initially used in the Series 2 and 3 PDTC investigations.
Determination of the total number of myonuclei across all regions of the mature nondystrophic, mdx-vehicle, and mdx-PDTC treated TS muscles in conjunction with determination of the total number of fiber cross sections in the same preparations provided an immediate measure of the number of myonuclei per sectioned fiber (FIG. 12).
These morphological results provide direct evidence that inhibitors of the NFκB pathway may have beneficial effects in treating both young and mature dystrophic preparations.

[3] = Observation of viability, side effects and body weight during treatment; conditions: overall sample of PDTC-treated mice
nuclear p65 activation = assay: TransAM NF-κB ELISA of nuclear p65 activation in mdx costal diaphragm; type: in vivo, mdx mice
Description: Cytosolic and nuclear fractions were obtained from isolated costal diaphragm using techniques that were slightly modified from Kumar and Boriek (2003). The muscles were removed from vehicle and drug-treated euthanized mdx mice at the end of the treatment period, and were flash-frozen and stored at −80° C. for a period of 1 to 4 weeks. The muscles were then thawed and weighed before being homogenized on ice using a mortar and pestle in low salt lysis (LSL) buffer (1 mg muscle wet weight/18 μl solution; in mM: 10 HEPES, 10 KCl, 1.5 MgCl2, 0.1 EDTA, 0.1 EGTA, 1 dithiothreitol (DTT), 0.5 phenylmethylsulfonylfluoride (PMSF); 0.5 mg/ml benzamidine, 4.0 μl/ml protease inhibitor cocktail Sigma #8340 (PIC) to produce the following final concentrations—2.1 μg/ml leupeptin, 3.85 μg/ml aprotinin, 0.416 mM AEBSF (Sigma A8456), 16 μM bestatin, 6 μM pepstatin A, 5.6 μM E64; pH 7.9). To lyse the cells, the ground tissue was then subjected to 2 freeze-thaw cycles (5 min freeze on dry ice followed by thawing at room temperature), and was subsequently vortexed and centrifuged (13,000 rpm, 15 s). The supernatant cytosolic extract was immediately frozen (−80° C.) for subsequent analyses as needed, while the nuclear pellet was washed in 50 μl LSL (2 times) before being re-suspended on ice in a high salt nuclear extraction buffer (in mM: 20 HEPES, 420 NaCl, 1 EDTA, 1 EGTA, 1 DTT, 0.5 PMSF; 25% glycerol, 0.5 mg/ml benzamidine, 4.0 μl/ml PIC; pH 7.9) at a ratio of 4 μl of solution per mg muscle wet weight. Preparations were incubated on ice for 30 min and vortexed for 10 s every 5 min before being centrifuged (13,000 rpm, 6 min) at 4° C. The supernatant nuclear extract was then removed and frozen (−80° C.) for subsequent analyses. Potential contamination of nuclear extracts with cytoplasmic proteins was less than 5%. Protein determinations for each fraction were obtained using the Bradford assay.
The Trans-Am assay (Active Motif; Carlsbad, Calif.) was used to determine nuclear NF-κB activation in nuclear fractions which were applied to the 96 well ELISA plates at 2-20 μg protein. The p65 primary antibody (catalogue number 40096) was used to detect p65 bound to oligonucleotide in vehicle and drug-treated preparations in accordance with kit instructions. A nuclear extract from Jurkat cells was routinely run as a positive control in association with each set of control and experimental samples.
Horizontal dashed lines indicate average levels observed in nondystrophic, vehicle, and UDCA treated preparations as indicated. In each case, percent recovery is determined by dividing the mean improvement observed in the UDCA treated preparation (UDCA-vehicle) from the deficit observed in the vehicle-treated preparation (nondystrophic-vehicle mdx). Mdx mice were treated for 30 days beginning at 1 month of age. Horizontal dashed lines in (A) and (B) representing nondystrophic values were obtained from a cohort of nondystrophic mice at 2 months of age. […] The results were obtained from two separate groups of vehicle and UDCA treated preparations that were assayed using two different 96 well plates. For each plate, the absorbance for each sample was normalized to the average absorbance determined for the vehicle-treated preparations on that plate. […] Millman et al., 2007. N is the number of mice and preparations in each condition. Shown are the means and standard errors. […] indicate p<0.05 and p<0.01, respectively, between vehicle and UDCA treated preparations. […]

nuclear NF-κB activation = conditions: long term treatment; Messina et al. (2006); cited from earlier work
[4] = Series 3 aged mdx mice, P<0.001 vs saline littermates
[5] = Series 2 and 3, vs age-matched vehicle
[6] = mature mdx, vs vehicle-injected, p<0.001

S=C(S)N1CCCC1 [PDTC, pyrrolidine dithiocarbamate]
improvement in average twitch tension relative to vehicle-injected (mdx gastrocnemius muscle; mature mdx (about 15 months), 50 mg/kg daily, average 72 days): 52% | twitch tension development (mdx gastrocnemius muscle; mature mdx mice, average age 15 months at sacrifice): improves | improvement in twitch tension/gm relative to vehicle-injected (mdx gastrocnemius muscle; mature mdx, just failed to reach statistical significance (p>=0.05)): 45% | increase in twitch tension vs vehicle-treated (mdx gastrocnemius muscle; young adult (2 month old) mdx): 13% | increase in twitch tension/mg muscle weight vs vehicle-treated (mdx gastrocnemius muscle; young adult (2 month old) mdx): 11% | twitch tension development (mdx gastrocnemius muscle; young adult mdx mice): improves | percent centronucleation [1]: reduced; also recorded: significantly reduces | resting potential of TS fibers (mdx TS muscle fibers; 50 mg/kg ip 48-76 days, mature mdx mice Series 2 and Series 3): significantly increases | resting potential (mdx TS muscle fibers; Series 1 daily PDTC, middle and caudal regions, relative to nondystrophic levels): completely restored; also recorded: restores | increase in resting potential, caudal region (mdx TS muscle fibers; Series 2 daily PDTC): not | resting potential, middle region (mdx TS muscle fibers; Series 2 daily PDTC, saline −35.8 mV, P<0.05): −45.4 mV | average resting potential, middle region (mdx TS muscle fibers; Series 3 aged mdx mice, N=9 fibers, 2 mice): −32.2±6.5 mV | resting potential, caudal region (mdx TS muscle fibers; [4]): approximately −45 mV | resting potential, overall (middle, caudal, cephalad combined) (mdx TS muscle fibers; [4]): ~−40 mV | overall resting potential (mdx TS muscle fibers; Series 4: administration initiated at 5 months, read at 6.5-13.5 months, N=64 fibers, 3 TS muscles): -49.3 ± 1.4 mV | average resting potential (mdx TS muscle fibers; Series 4: mdx mouse treated between 5 and 13.5 months, N=22 fibers): −53.3±2.0 mV | fiber number, caudal region [2, 5]: substantial increases | fiber number, cephalad region [2, 5]: an increase | fiber number, middle region [2, 5]: no change | number of fibers per unit length ([2]; Series 2 and 3, cephalad and caudal regions, p<0.05): increased | number of myonuclei per fiber ([2]; Series 2 and 3 mature mdx, vs age matched vehicle, p<0.001): increase | fiber number or density, middle region ([2]; chronic PDTC, mature mdx): without altering | density of fibers / loss of muscle fibers ([2]; individual mdx mouse, 50 mg/kg on 238 of 258 days from 5 to 13.5 months, vs 14.6 month vehicle treated, 50 mg/kg): substantial improvements; also recorded: decreases the loss | percent centronucleation ([2]; mature mdx mice, Series 2 and 3, p<0.001): reduced; also recorded: significantly decreased | fiber diameter, caudal region [2, 6]: reduction | fiber diameter, middle region [2, 6]: increase | effect on viability [3]: no obvious effect | reduction of nuclear p65 activation (nuclear p65 activation; mature adult mdx, PDTC 50 mg/kg/day ip 30 days, not significant, p=0.4, N=4 vehicle, N=3 PDTC): 23% | effect on nuclear p65 activation (nuclear p65 activation; young adult mdx, PDTC 60 days beginning at 30 days of age, N=5 per group): no effect | nuclear NF-κB activation in mdx quadriceps (nuclear NF-κB activation): effectively reduced
